The supplement of paper PMC10307832

Tests used:
Assay in all cases: relative viability (nuclei count vs DMSO), 5 days (fraction); higher = more cells survive
[1] = compound: Nc1ncn([C@H]2C[C@H](O)[C@@H](CO)O2)c(=O)n1 [Decitabine] + C[C@]1(O)C[C@@H](c2nc(-c3ccc4ccc(-c5ccccc5)nc4c3)c3c(N)nccn32)C1 [Linsitinib] (partner 1 µM)
Outline: (§1)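 For relative viability, nuclei counts in treated wells were divided by those in vehicle wells. Lung cancer cell lines had been pin-tool dosed in 1536-well plates the day after seeding and cultured for 5 days, then fixed and stained in one step (final 0.05% Triton X-100, 1% formaldehyde, 1 ug/ml Hoechst) and imaged at 4×. Doses were one drug alone or a fixed anchor-drug dose plus five library-drug doses (not always all listed) in √10 steps, and values are duplicate-plate medians.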

[2] = compound: O=C(C[C@H]1NCCC[C@@H]1O)Cn1cnc2cc(Br)c(Cl)cc2c1=O (racemic) [Halofuginone] + COc1cccc2cc(-c3nc([C@H]4CC[C@H](C(=O)O)CC4)n4ncnc(N)c34)[nH]c12 [OSI-027] (partner 0.5 µM)
Outline: as §1

[3] = compound: COc1cc2c(Oc3ccc4[nH]c(C)cc4c3F)ncnc2cc1OCCCN1CCCC1 [Cediranib] + CC(=O)Nc1cccc(-n2c(=O)n(C3CC3)c(=O)c3c(Nc4ccc(I)cc4F)n(C)c(=O)c(C)c32)c1 [Trametinib] (partner 0.02 µM)
Outline: as §1

[4] = compound: O=C(C[C@H]1NCCC[C@@H]1O)Cn1cnc2cc(Br)c(Cl)cc2c1=O (racemic) [Halofuginone] + O=C(CCCCCCC(=O)Nc1ccccc1)NO [Vorinostat] (partner 1 µM)
Outline: as §1

Cell Line | relative viability ([1]; first compound 0.04 µM) | relative viability ([1]; first compound 0.1265 µM) | relative viability ([1]; first compound 0.4 µM) | relative viability ([1]; first compound 1.265 µM) | relative viability ([1]; first compound 4 µM) | relative viability ([2]; first compound 0.001 µM) | relative viability ([2]; first compound 0.003162 µM) | relative viability ([2]; first compound 0.01 µM) | relative viability ([2]; first compound 0.03162 µM) | relative viability ([2]; first compound 0.1 µM) | relative viability ([3]; first compound 0.04 µM) | relative viability ([3]; first compound 0.1265 µM) | relative viability ([3]; first compound 0.4 µM) | relative viability ([3]; first compound 1.265 µM) | relative viability ([3]; first compound 4 µM) | relative viability ([4]; first compound 0.001 µM) | relative viability ([4]; first compound 0.003162 µM) | relative viability ([4]; first compound 0.01 µM) | relative viability ([4]; first compound 0.03162 µM) | relative viability ([4]; first compound 0.1 µM)
NCI-H2228 | 0.377 | 0.589 | 0.613 | 0.356 | 0.291 | 0.741 | 0.647 | 0.465 | 0.371 | 0.198 | 0.46 | 0.376 | 0.398 | 0.565 | 0.505 | 0.822 | 0.807 | 0.726 | 0.424 | 0.0673
NCI-H1944 | 1.06 | 0.962 | 0.934 | 0.667 | 0.642 | 0.422 | 0.431 | 0.447 | 0.404 | 0.343 | 0.402 | 0.377 | 0.409 | 0.4 | 0.474 | 0.565 | 0.536 | 0.519 | 0.477 | 0.513
HOP-62 | 0.617 | 0.307 | 0.159 | 0.138 | 1.05 | 0.782 | 0.803 | 0.826 | 0.727 | 0.576 | 0.442 | 0.404 | 0.346 | 0.387 | 0.42 | 0.675 | 0.597 | 0.603 | 0.566 | 0.279
NCI-H2347 | 0.936 | 0.935 | 0.725 | 0.639 | 0.625 | 0.577 | 0.336 | 0.454 | 0.425 | 0.344 | 0.316 | 0.282 | 0.233 | 0.286 | 0.318 | 0.769 | 0.561 | 0.55 | 0.611 | 0.395
NCI-H2087 | 0.659 | 0.678 | 0.591 | 0.41 | 0.384 | 0.439 | 0.593 | 0.528 | 0.484 | 0.424 | 0.221 | 0.29 | 0.179 | 0.183 | 0.288 | 0.72 | 0.713 | 0.773 | 0.723 | 0.484
EPLC-272H | 0.811 | 0.939 |  | 0.596 | 0.548 | 0.342 | 0.278 | 0.262 | 0.29 | 0.257 | 0.318 |  | 0.278 | 0.269 | 0.242 | 0.479 | 0.401 | 0.304 | 0.411 | 0.382
LXF-289 | 0.893 | 0.674 | 0.566 | 0.372 | 0.395 | 0.762 | 0.885 | 0.819 | 0.785 | 0.542 | 0.671 |  | 0.676 | 0.651 | 0.632 | 0.709 | 0.829 | 0.728 | 0.763 | 0.686
COR-L23 | 0.647 | 0.482 | 0.374 | 0.272 | 0.19 | 0.769 | 0.86 | 0.72 | 0.677 | 0.302 | 0.608 | 0.578 | 0.573 | 0.425 | 0.532 | 0.602 | 0.295 | 0.493 | 0.301 | 0.106
